# Biological target: T1, hFXR (Homo sapiens, UniProt Q96RI1)
# T1 construct: expressed in transfected cells; host or cells: CV-1 cells
# T1 sequence (Q96RI1 1-486): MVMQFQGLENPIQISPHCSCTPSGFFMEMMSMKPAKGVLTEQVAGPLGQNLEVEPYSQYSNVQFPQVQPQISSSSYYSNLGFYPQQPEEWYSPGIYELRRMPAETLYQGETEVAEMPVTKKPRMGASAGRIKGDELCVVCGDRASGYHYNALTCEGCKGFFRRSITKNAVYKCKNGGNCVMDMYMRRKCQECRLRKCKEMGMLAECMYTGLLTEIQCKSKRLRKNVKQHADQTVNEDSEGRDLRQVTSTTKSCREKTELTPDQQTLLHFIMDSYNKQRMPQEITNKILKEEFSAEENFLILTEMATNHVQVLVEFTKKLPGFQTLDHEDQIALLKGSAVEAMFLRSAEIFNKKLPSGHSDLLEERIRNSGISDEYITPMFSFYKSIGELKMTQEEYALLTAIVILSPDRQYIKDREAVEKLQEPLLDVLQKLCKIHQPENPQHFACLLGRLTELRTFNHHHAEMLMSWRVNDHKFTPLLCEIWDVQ
# T1 sequence (P19793 1-462 partner): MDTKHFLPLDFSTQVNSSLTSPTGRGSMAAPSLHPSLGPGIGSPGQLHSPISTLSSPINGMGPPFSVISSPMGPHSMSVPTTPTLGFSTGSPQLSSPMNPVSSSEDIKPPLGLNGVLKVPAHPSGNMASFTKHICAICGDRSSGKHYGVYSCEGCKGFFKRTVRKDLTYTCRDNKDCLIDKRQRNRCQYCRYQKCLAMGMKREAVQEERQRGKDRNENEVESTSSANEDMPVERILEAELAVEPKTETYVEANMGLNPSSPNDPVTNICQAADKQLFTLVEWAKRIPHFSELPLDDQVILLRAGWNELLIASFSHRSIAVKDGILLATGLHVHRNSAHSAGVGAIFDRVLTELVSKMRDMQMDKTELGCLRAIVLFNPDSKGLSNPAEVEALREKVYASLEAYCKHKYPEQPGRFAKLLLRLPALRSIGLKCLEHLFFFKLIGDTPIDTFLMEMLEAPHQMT
# Assay: In Vitro FXR Assay (TK): TK-ECRE-luc reporter in transfected CV-1 cells
# Format: cell-based
# Details: 18 hrs, luminescence, maximum efficacy of <25% of the Fexarmine control classified as '+'
# Protocol: CV-1 cells were seeded at a density of 2,000,000 cells in a T175 flask with DMEM+10% charcoal double-stripped FBS and incubated at 37° C. in 5% CO2 for 18 h (O/N).
# After 18 h of incubation, the medium in the T175 flask was changed with fresh DMEM+10% charcoal super-stripped serum. In a polypropylene tube, 2500 μL OptiMEM (Life Technologies, Cat #31985-062) was combined with expression plasmids for hFXR, hRXR, TK-ECRE-luc and pCMX-YFP. The tube was then briefly vortexed and incubated at room temperature for 5 minutes. Transfection reagent (X-tremeGENE HP from Roche, Cat #06 366 236 001) was added to the OptiMEM/plasmid mixture vortexed and incubated at room temperature for 20 minutes. Following incubation, the transfection reagent/DNA mixture complex was added to cells in the T175 flask and the cells were incubated at 37° C. in 5% CO2 for 18 h (O/N).
# Compounds were serially diluted in DMSO and added to transfected CV-1 cells. The cells were then incubated for 18 hrs. The next day cells were lysed and examined for luminescence.
row,SMILES,EC50 [nM]
1,"COc1ccc([C@H]2CC[C@H](CN(c3cccc(-c4cnn(C5CC5)c4)c3)C(=O)[C@H]3CC[C@H](OC(=O)N4CC(C[S+](C)[O-])C4)CC3)CC2)cc1C (stereo partly drawn) [Compound 8, trans-4-((3-(1-Cyclopropyl-1H-pyrazol-4-yl)phenyl)((trans-4-(4-methoxy-3-methylphenyl)cyclohexyl)methyl)carbamoyl)cyclohexyl 3-((methylsulfinyl)methyl)azetidine-1-carboxylate]",≤ 250
2,"COc1ccc([C@H]2CC[C@H](CN(c3cccc(-c4coc(C5CC5)n4)c3)C(=O)[C@H]3CC[C@H](NC(C)=O)CC3)CC2)cc1C [Compound 26.19, trans-4-Acetamido-N-(3-(2-cyclopropyloxazol-4-yl)phenyl)-N-((trans-4-(4-methoxy-3-methylphenyl)cyclohexyl)methyl) cyclohexanecarboxamide]",≤ 250
3,"CNC(=O)O[C@H]1CC[C@H](C(=O)N(C[C@H]2CC[C@H](c3ccc(OC)c(C#N)c3)CC2)c2cc(-c3cnn(C4CC4)c3)ccn2)CC1 [Compound 5.17, trans-4-(((trans-4-(3-Cyano-4-methoxyphenyl)cyclohexyl)methyl)(4-(1-cyclopropyl-1H-pyrazol-4-yl)pyridin-2-yl)carbamoyl)cyclohexyl methylcarbamate]",≤ 250
4,"COc1ccc([C@H]2CC[C@H](CN(c3cc(-c4cnn(C(C)C)c4)ccn3)C(=O)[C@H]3CC[C@H](OC(=O)NC(C)C)CC3)CC2)nc1C [Compound 7.44, trans-4-((4-(1-Isopropyl-1H-pyrazol-4-yl)pyridin-2-yl)((trans-4-(5-methoxy-6-methylpyridin-2-yl)cyclohexyl)methyl)carbamoyl)cyclohexyl isopropylcarbamate]",≤ 250
5,"CNC(=O)O[C@H]1CC[C@H](C(=O)N(C[C@H]2CC[C@H](c3ccc(OC)c(C)c3)CC2)c2cccc(-c3coc(C4CC4)n3)c2)CC1 [Compound 2.06, trans-4-((3-(2-Cyclopropyloxazol-4-yl)phenyl)((trans-4-(4-methoxy-3-methylphenyl)cyclohexyl)methyl)carbamoyl)cyclohexyl) methylcarbamate]",≤ 250
6,"CNC(=O)O[C@]1(C)CC[C@@H](C(=O)N(C[C@H]2CC[C@H](c3ccc(OC)c(C)c3)CC2)c2cccc(-c3cnn(C(C)C)c3)c2)CC1 [Compound 5.52, trans-4-((3-(1-Isopropyl-1H-pyrazol-4-yl)phenyl)((trans-4-(4-methoxy-3-methylphenyl)cyclohexyl)methyl)carbamoyl)-1-methylcyclohexyl methylcarbamate]",≤ 250
7,"COc1ccc([C@H]2CC[C@H](CN(c3cccc(-c4cnn(C5CC5)c4)c3)C(=O)[C@H]3CC[C@H](NC(=O)CO)CC3)CC2)cc1C [Compound 26.03, trans-N-(3-(1-Cyclopropyl-1H-pyrazol-4-yl)phenyl)-4-(2-hydroxyacetamido)-N-((trans-4-(4-methoxy-3-methylphenyl)cyclohexyl)methyl) cyclohexanecarboxamide]",≤ 250
8,"COc1ccc([C@H]2CC[C@H](CN(c3cccc(-c4cnn(C(C)C)c4)c3)C(=O)[C@H]3CC[C@H](OC(=O)NCCCO)CC3)CC2)cc1C [Compound 6.14, trans-4-((3-(1-Isopropyl-1H-pyrazol-4-yl)phenyl)((trans-4-(4-methoxy-3-methylphenyl)cyclohexyl)methyl)carbamoyl)cyclohexyl (3-hydroxypropyl)carbamate]",≤ 250
9,"COc1ccc([C@H]2CC[C@H](CN(c3cccc(-c4cnc(C5CC5)s4)c3)C(=O)[C@H]3CC[C@H](NC(=O)COCCN)CC3)CC2)cc1C [Compound 32.05, trans-4-(2-(2-Aminoethoxy)acetamido)-N-(3-(2-cyclopropylthiazol-5-yl)phenyl)-N-((trans-4-(4-methoxy-3-methylphenyl)cyclohexyl)methyl) cyclohexanecarboxamide]",250 to 1000

# — US20220089575A1, “FARNESOID X RECEPTOR AGONISTS AND USES THEREOF” (Metacrine, Inc., priority 2017, published 2022)
